In PubChem BioAssay (NCI):
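The compound was tested at five concentrations on cells cultured in 96-well plates, with a 48-hour exposure period. Abbreviation: GI50, concentration required for 50% inhibition of growth. TGI denotes the concentration required for complete inhibition of growth.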

Assays:
Test in all cases: DTP human tumour cell line panel, 48 h
[1] = tested on: 786-0 renal
[2] = tested on: A498 renal
[3] = tested on: A549 NSCLC
[4] = tested on: ACHN renal
[5] = tested on: BT-549 breast
[6] = tested on: CAKI-1 renal
[7] = tested on: CCRF-CEM leukemia
[8] = tested on: COLO 205 colon
[9] = tested on: DU-145 prostate
[10] = tested on: HCC-2998 colon
[11] = tested on: HCT-116 colon
[12] = tested on: HCT-15 colon
[13] = tested on: HL-60(TB) leukemia
[14] = tested on: HOP-62 NSCLC
[15] = tested on: HOP-92 NSCLC
[16] = tested on: HS 578T breast
[17] = tested on: HT29 colon
[18] = tested on: IGROV1 ovarian
[19] = tested on: K-562 leukemia
[20] = tested on: KM12 colon
[21] = tested on: LOX IMVI melanoma
[22] = tested on: M14 melanoma
[23] = tested on: MALME-3M melanoma
[24] = tested on: MCF7 breast
[25] = tested on: MDA-MB-231 breast
[26] = tested on: MDA-MB-435
[27] = tested on: MOLT-4 leukemia
[28] = tested on: NCI-H226 lung
[29] = tested on: NCI-H23 lung
[30] = tested on: NCI-H460 lung
[31] = tested on: NCI-H522 lung
[32] = tested on: NCI/ADR-RES ovarian
[33] = tested on: OVCAR-3 ovarian
[34] = tested on: OVCAR-4 ovarian
[35] = tested on: OVCAR-5 ovarian
[36] = tested on: OVCAR-8 ovarian
[37] = tested on: PC-3 prostate
[38] = tested on: RPMI-8226 leukemia
[39] = tested on: RXF 393 renal
[40] = tested on: SF-268 CNS
[41] = tested on: SF-295 CNS
[42] = tested on: SF-539 CNS
[43] = tested on: SK-MEL-2 melanoma
[44] = tested on: SK-MEL-28 melanoma
[45] = tested on: SK-MEL-5 melanoma
[46] = tested on: SK-OV-3 ovarian
[47] = tested on: SN12C renal
[48] = tested on: SNB-19 CNS
[49] = tested on: SNB-75 CNS
[50] = tested on: SR leukemia
[51] = tested on: SW-620 colon
[52] = tested on: T-47D breast
[53] = tested on: TK-10 renal
[54] = tested on: U251 CNS
[55] = tested on: UACC-257 melanoma
[56] = tested on: UACC-62 melanoma
[57] = tested on: UO-31 renal

With `O=C1NC(=NCc2ccccn2)S/C1=C\c1ccc2ncccc2c1` the GI50 [1] was 13.4 µM, the TGI [1] was > 25 µM and the GI50 [2] was 3.95 µM. The TGI [2] was > 18.8 µM, the GI50 [3] was 8.41 µM and the TGI [3] was > 25 µM. For the same compound, the GI50 [4] was 10.2 µM, the TGI [4] was > 25 µM and the GI50 [5] was 9.23 µM. For the same compound, the TGI [5] was > 25 µM, the GI50 [6] was 6.62 µM and the TGI [6] was > 18.9 µM. The GI50 [7] was 10.7 µM, the TGI [7] was > 25 µM and the GI50 [8] was 7.68 µM. For the same compound, the TGI [8] was > 25 µM, the GI50 [9] was 9.81 µM and the TGI [9] was > 25 µM. For the same compound, the GI50 [10] was 13.8 µM, the TGI [10] was > 25 µM and the GI50 [11] was 8.86 µM. The TGI [11] was > 25 µM, the GI50 [12] was 6.86 µM and the TGI [12] was > 25 µM. For the same compound, the GI50 [13] was 6.56 µM, the TGI [13] was > 25 µM and the GI50 [14] was 13.2 µM. For the same compound, the TGI [14] was > 25 µM, the GI50 [15] was 6.5 µM and the TGI [15] was > 21.8 µM. For the same compound, the GI50 [16] was 6.12 µM, the TGI [16] was 21.4 µM and the GI50 [17] was 15 µM. The TGI [17] was > 25 µM, the GI50 [18] was 17.8 µM and the TGI [18] was > 25 µM. For the same compound, the GI50 [19] was 8.29 µM, the TGI [19] was > 25 µM and the GI50 [20] was 13.2 µM. For the same compound, the TGI [20] was > 25 µM, the GI50 [21] was 13.1 µM and the TGI [21] was > 25 µM. The GI50 [22] was 11.6 µM, the TGI [22] was > 25 µM and the GI50 [23] was > 13.1 µM. For the same compound, the TGI [23] was > 23.3 µM, the GI50 [24] was 8.75 µM and the TGI [24] was > 25 µM. For the same compound, the GI50 [25] was 17.8 µM, the TGI [25] was > 25 µM and the GI50 [26] was 7.64 µM. For the same compound, the TGI [26] was > 21.9 µM, the GI50 [27] was 11.3 µM and the TGI [27] was > 25 µM. The GI50 [28] was 15 µM, the TGI [28] was > 25 µM and the GI50 [29] was 12.1 µM. The TGI [29] was > 25 µM, the GI50 [30] was 9.07 µM and the TGI [30] was > 25 µM. The GI50 [31] was 7.61 µM, the TGI [31] was > 18.8 µM and the GI50 [32] was 16.9 µM. For the same compound, the TGI [32] was > 25 µM, the GI50 [33] was 12.6 µM and the TGI [33] was > 25 µM. The GI50 [34] was 9.74 µM, the TGI [34] was 24.7 µM and the GI50 [35] was > 25 µM. The TGI [35] was > 25 µM, the GI50 [36] was 14.4 µM and the TGI [36] was > 25 µM. The GI50 [37] was > 25 µM, the TGI [37] was > 25 µM and the GI50 [38] was > 12.6 µM. For the same compound, the TGI [38] was > 25 µM, the GI50 [39] was 8.8 µM and the TGI [39] was > 25 µM. For the same compound, the GI50 [40] was 8.5 µM, the TGI [40] was > 25 µM and the GI50 [41] was 14.7 µM. The TGI [41] was > 25 µM, the GI50 [42] was 7.54 µM and the TGI [42] was > 25 µM. For the same compound, the GI50 [43] was 10.7 µM, the TGI [43] was > 22.8 µM and the GI50 [44] was > 23.7 µM. For the same compound, the TGI [44] was > 25 µM, the GI50 [45] was 13 µM and the TGI [45] was > 25 µM. For the same compound, the GI50 [46] was 8.59 µM, the TGI [46] was > 23.5 µM and the GI50 [47] was 10.8 µM. For the same compound, the TGI [47] was > 25 µM, the GI50 [48] was 10.7 µM and the TGI [48] was > 25 µM. It also gave a GI50 [49] of 4.21 µM, a TGI [49] of 22.4 µM and a GI50 [50] of 6 µM. For the same compound, the TGI [50] was 24.8 µM, the GI50 [51] was 7.81 µM and the TGI [51] was > 25 µM. For the same compound, the GI50 [52] was 11.2 µM, the TGI [52] was > 25 µM and the GI50 [53] was 6.06 µM. For the same compound, the TGI [53] was > 20.2 µM, the GI50 [54] was 7.87 µM and the TGI [54] was > 25 µM. For the same compound, the GI50 [55] was > 12.7 µM, the TGI [55] was > 25 µM and the GI50 [56] was > 17.5 µM. For the same compound, the TGI [56] was > 25 µM, the GI50 [57] was 11.3 µM and the TGI [57] was > 25 µM.
